Experimental data taken from patent US20240350503A1, “COMPOUNDS FOR TREATMENT OF VIRAL INFECTIONS BY NEUROTROPIC VIRUS” (priority 2021, published 2024).
“Also recorded” adds a separate entry of the source. Like-named read-outs stand apart in the source and are kept apart here.

How the values were obtained:
HSV-1 [1] = format: cell-based, HSV-1 KOS strain
HSV-1 [2] = format: cell-based, HSV-1 KOS strain; remark: listed apart in the source
HSV-2 [3] = format: cell-based, HSV-2 333 strain
HSV-2 [4] = format: cell-based, HSV-2 333 strain; remark: listed apart in the source
VSV = format: cell-based, Indiana strain VSV; settings: SH-SY5Y cells, 0.5 μM, 2 h pre-treatment, MOI 0.001, 18 h; versus DMSO control
EMCV = format: cell-based, FA strain EMCV
Influenza A virus = assay: RT-qPCR of Influenza A virus matrix 2 (M2) RNA in infected SH-SY5Y cells; format: cell-based, Influenza virus A (H1N1) strain PR8; settings: 1 μM, 2 h pre-treatment, MOI 0.1, 48 h, versus DMSO control
HSV-1 [5] = assay: virus plaque assay of supernatant from HSV-1 infected mouse primary neurons; format: cell-based, HSV-1 KOS strain; settings: 0.5 μM, 2 h pre-treatment, MOI 3, 72 h, versus DMSO control
Procedure: (§1) The isolated mouse primary-neurons were pre-treated with ML228 and DMSO at a concentration of 0.5 μM for 2 hours and were infected with HSV-1, at a MOI of 3 and HSV-2, at a MOI of 2. After 4 hours infection, the virus was removed and the cells were incubated with ML228 and DMSO for 72 hours. After 72 hours, the supernatant was used for virus plaque assay and the cells were lysed for RNA-extraction and RT-qPCRt.
(§2) Supernatants collected from mouse primary neurons treated with ML228 and DMSO and infected with HSV-1 and HSV-2, were used for virus titer in a virus plaque assay. For this purpose, Vero cells at a density of 1.2×10^6 cells/petri dish, in DMEM were seeded and left overnight in order to settle and to form a monolayer. The next day, cells were infected with 100 μL of supernatant in appropriate serial dilutions. The cells were incubated for 1 hour at 37° C. Subsequently, 5 ml DMEM supplemented with 0.2% normal human immunoglobin (Octapharma) were added to the cells. The plates were incubated for 2-3 days at 37° C. and stained with 0.03% methyl blue. The plaques were counted and the results were represented as PFU (plaque-forming units) per sample.

HSV-1 [6] = assay: RT-qPCR of HSV-1 glycoprotein B RNA in infected mouse primary neurons; format: cell-based, HSV-1 KOS strain; settings: 0.5 μM, 2 h pre-treatment, MOI 3, 72 h, versus DMSO control
Procedure: as §1
(§3) The RT-qPCR results were obtained by total RNA extraction using the High Pure RNA Isolation kit (Roche) according to the manufacturer's instructions. RNA quality and concentration was assessed using Nanodrop spectrometry (Thermo Fisher). Viral replication was analysed by measuring RNA level against HSV-(1/2) Glycoprotein B (gB) using Brilliant III Ultra-Fast SYBR Green QRT-PCR Master Mix kit (Agilent Technology). CT values were normalized versus 18srRNA (ACT) in HSV-(1/2) infection.

HSV-2 [7] = assay: virus plaque assay of supernatant from HSV-2 infected mouse primary neurons; format: cell-based, HSV-2 333 strain; settings: 0.5 μM, 2 h pre-treatment, MOI 2, 72 h, versus DMSO control
Procedure: as §1, §2

HSV-2 [8] = assay: RT-qPCR of HSV-2 glycoprotein B RNA in infected mouse primary neurons; format: cell-based, HSV-2 333 strain; settings: 0.5 μM, 2 h pre-treatment, MOI 2, 72 h, versus DMSO control
Procedure: as §1, §3

IRF1 gene expression = assay: RNA-sequencing of IRF1 gene expression in SH-Sy5y cells upon ML228 treatment; format: cell-based, human; settings: SH-Sy5y cells treated with AAVS1 sgRNA, ML228 0.5 μM for 8 h versus DMSO control

In the case of `c1ccc(-c2ccc(CNc3nc(-c4ccccn4)nnc3-c3ccccc3)cc2)cc1` [ML228], the “number of plaque forming units (PFU) in titer, HSV-1” value (HSV-1 [1]) was “completely counteract the virus infection; also recorded: significantly decreased”, the “HSV-1 replication (virus gB RNA level)” value (HSV-1 [2]) was “significantly decreased” and the “number of plaque forming units (PFU) in titer, HSV-2” value (HSV-2 [3]) was “completely counteract the virus infection; also recorded: significantly decreased”. For the same compound, the “HSV-2 replication (virus gB RNA level)” value (HSV-2 [4]) was “significantly decreased”, the “VSV titer / virus cytopathic effect (TCID50%)” value (VSV) was “significantly reduces the virus cytopathic effect; also recorded: significantly decreased” and the “EMCV titer / virus cytopathic effect (TCID50%)” value (EMCV) was “significantly decreased”. The “Influenza A virus replication (virus M2 RNA level)” value (Influenza A virus) was “also reduced; also recorded: significantly decreased”, the “number of plaque forming units (PFU) in titer, HSV-1” value (HSV-1 [5]) was “significantly reduced; also recorded: significantly decreased” and the “HSV-1 replication (virus gB RNA level)” value (HSV-1 [6]) was “reduction of the viral replication; also recorded: significantly decreased”. The “number of plaque forming units (PFU) in titer, HSV-2” value (HSV-2 [7]) was “significantly less plaque-forming units; also recorded: significantly decreased”, the “HSV-2 replication (virus gB RNA level)” value (HSV-2 [8]) was “severely inhibited; also recorded: significantly decreased” and the “IRF1 gene expression, log 2 fold change” value (IRF1 gene expression) was 0.6842.
